Reference: ChEMBL document CHEMBL5726294, “Derivatives of 6-(2,3-dichlorophenyl)-1,2,4-triazin-5-amine” (2019)
“And” between values parts separate entries of the source, which are not always exact repeats. Equal values may be shown once.

Target: T1, Sodium channel protein type 9 subunit alpha (Homo sapiens, UniProt Q15858)
Assay: (§1) Ex-Vivo Potencies in Tonic state: The potencies of the compounds provided herein to block specific Na+ channels was measured using automated patch clamp electrophysiologically of Nav1.7 sodium channels (human SCN9A gene) stably expressed in CHO cells using the IonWorks Barracuda system. Currents were measured from the whole cell patch configuration. From a holding potential of −90 mV, membranes were subjected to a 200 ms pre-pulse to −120 mV, then pulsed to 0 mV to measure blockade of the tonic (resting) state. Inactivated state block was elicited by repolarization to −100 mV (20 ms pulse duration), followed by depolarization to 0 mV (20 ms pulse duration). Peak inward Na+ currents were measured in the presence of vehicle or various concentrations of the test compound to determine the percent block of current.
Assay type: cell-based

T1 sequence (Q15858 whole entry): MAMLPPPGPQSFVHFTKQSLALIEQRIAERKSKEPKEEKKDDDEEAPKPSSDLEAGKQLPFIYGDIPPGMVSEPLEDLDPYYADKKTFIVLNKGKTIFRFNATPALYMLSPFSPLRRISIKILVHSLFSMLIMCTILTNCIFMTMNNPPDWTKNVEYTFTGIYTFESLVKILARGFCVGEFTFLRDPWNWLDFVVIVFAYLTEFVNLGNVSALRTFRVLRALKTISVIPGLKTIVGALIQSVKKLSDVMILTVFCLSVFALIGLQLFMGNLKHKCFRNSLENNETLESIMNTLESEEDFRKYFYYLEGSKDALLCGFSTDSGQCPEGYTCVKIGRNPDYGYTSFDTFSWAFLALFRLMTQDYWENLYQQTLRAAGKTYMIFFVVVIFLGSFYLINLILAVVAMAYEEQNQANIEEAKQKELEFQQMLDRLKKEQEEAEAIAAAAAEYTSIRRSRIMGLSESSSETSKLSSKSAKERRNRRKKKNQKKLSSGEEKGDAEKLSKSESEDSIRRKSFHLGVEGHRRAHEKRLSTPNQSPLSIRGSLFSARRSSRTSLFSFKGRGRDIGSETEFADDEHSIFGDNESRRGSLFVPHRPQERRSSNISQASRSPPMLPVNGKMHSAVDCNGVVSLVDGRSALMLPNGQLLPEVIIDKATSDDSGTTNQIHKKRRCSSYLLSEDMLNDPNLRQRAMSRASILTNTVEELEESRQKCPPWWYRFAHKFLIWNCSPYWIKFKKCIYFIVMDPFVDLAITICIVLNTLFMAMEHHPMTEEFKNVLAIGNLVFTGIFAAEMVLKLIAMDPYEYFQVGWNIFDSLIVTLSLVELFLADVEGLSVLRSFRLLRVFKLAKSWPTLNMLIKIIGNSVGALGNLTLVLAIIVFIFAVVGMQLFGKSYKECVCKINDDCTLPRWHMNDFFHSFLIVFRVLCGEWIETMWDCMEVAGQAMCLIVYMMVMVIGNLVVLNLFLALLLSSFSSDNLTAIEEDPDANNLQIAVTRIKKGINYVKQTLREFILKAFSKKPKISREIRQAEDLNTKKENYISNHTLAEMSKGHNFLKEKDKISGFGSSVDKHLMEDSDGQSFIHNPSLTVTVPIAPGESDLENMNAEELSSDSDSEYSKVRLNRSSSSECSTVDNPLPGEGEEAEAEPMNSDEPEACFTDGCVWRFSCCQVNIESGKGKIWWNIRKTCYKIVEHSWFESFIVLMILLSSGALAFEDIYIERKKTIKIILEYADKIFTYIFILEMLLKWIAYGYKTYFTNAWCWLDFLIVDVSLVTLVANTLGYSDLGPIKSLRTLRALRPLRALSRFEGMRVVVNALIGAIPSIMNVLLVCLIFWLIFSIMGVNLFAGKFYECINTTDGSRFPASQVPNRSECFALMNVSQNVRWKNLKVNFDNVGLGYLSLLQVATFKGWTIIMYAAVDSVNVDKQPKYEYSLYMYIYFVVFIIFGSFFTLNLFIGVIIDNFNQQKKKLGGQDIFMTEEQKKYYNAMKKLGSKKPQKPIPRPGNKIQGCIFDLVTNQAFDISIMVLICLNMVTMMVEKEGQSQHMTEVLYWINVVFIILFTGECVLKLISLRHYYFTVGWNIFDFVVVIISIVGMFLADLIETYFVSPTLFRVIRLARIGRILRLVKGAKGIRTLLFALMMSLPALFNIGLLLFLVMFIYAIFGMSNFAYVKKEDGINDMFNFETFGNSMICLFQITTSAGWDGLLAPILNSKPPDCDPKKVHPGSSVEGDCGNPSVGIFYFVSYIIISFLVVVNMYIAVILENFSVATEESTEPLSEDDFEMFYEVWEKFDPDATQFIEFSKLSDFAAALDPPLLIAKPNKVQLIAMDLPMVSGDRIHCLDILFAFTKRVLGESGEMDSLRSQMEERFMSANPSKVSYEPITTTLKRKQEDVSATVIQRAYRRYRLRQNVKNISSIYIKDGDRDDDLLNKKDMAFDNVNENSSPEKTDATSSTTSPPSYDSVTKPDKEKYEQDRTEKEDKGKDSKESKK

| SMILES | IC50 |
| --- | --- |
| C[C@@H]1CN(c2nnc(-c3cc(F)cc(Cl)c3Cl)c(N)n2)C[C@H](C)N1 | 92.4 µM |
| COCCOCCOCCN1CCC(Nc2nnc(-c3cc(F)cc(Cl)c3Cl)c(N)n2)CC1 | > 200 µM |
| Nc1nc(N2CC(O)C2)nnc1-c1cccc(Cl)c1Cl | > 132 µM |
| CC(CO)Nc1nnc(-c2cccc(Cl)c2Cl)c(N)n1 (centres undefined) | > 200 µM |
| C[C@@H]1CN(c2nnc(-c3cccc(Cl)c3Cl)c(N)n2)C[C@H](C)N1 | 112 µM |
| Nc1nc(N2CCN[C@H](CO)C2)nnc1-c1cc(F)cc(Cl)c1Cl | > 200 µM |
| Nc1nc(N2CCN(CC(O)CO)[C@H](CO)C2)nnc1-c1cccc(Cl)c1Cl (some centres undefined) | > 200 µM |
| COCCOCCOCCN(C)C1CCN(c2nnc(-c3cccc(Cl)c3Cl)c(N)n2)CC1 | 92.5 µM |
| Nc1nc(N2CCC(O)(C(F)(F)F)CC2)nnc1-c1cccc(Cl)c1Cl | > 200 µM and 165 µM |
| COCCOCCOCC(C)Nc1nnc(-c2cccc(Cl)c2Cl)c(N)n1 (centres undefined) | > 200 µM |
| Nc1nc(N2CCN[C@@H](CO)C2)nnc1-c1cc(F)cc(Cl)c1Cl | > 200 µM |
| COCCOCCOCCN1CCN(c2nnc(-c3cccc(Cl)c3Cl)c(N)n2)CC1 | > 200 µM |
| Nc1nc(N2CCN(C3CCNCC3)CC2)nnc1-c1cccc(Cl)c1Cl | > 200 µM |
| Nc1nc(N2CCN[C@H](CO)C2)nnc1-c1cccc(Cl)c1Cl | > 200 µM |
| COCCOCCOCC(=O)N1CCN(c2nnc(-c3cc(F)cc(Cl)c3Cl)c(N)n2)CC1 | > 200 µM |
| Nc1nc(N2CC(O)(C(F)(F)F)C2)nnc1-c1cccc(Cl)c1Cl | > 200 µM |
| Nc1nc(N2CCN(C3CCOCC3)CC2)nnc1-c1cccc(Cl)c1Cl | 147 µM |
| Nc1nc(N2CCNCC2)nnc1-c1cc(F)cc(Cl)c1Cl | > 200 µM |

Target: T1, Sodium channel protein type 9 subunit alpha
Assay: as §1, with “Inactivated” for “Tonic”
Assay type: cell-based

| SMILES | IC50 |
| --- | --- |
| C[C@@H]1CN(c2nnc(-c3cc(F)cc(Cl)c3Cl)c(N)n2)C[C@H](C)N1 | < 50 µM |
| CC(CO)Nc1nnc(-c2cccc(Cl)c2Cl)c(N)n1 (centres undefined) | 127 µM |
| C[C@@H]1CN(c2nnc(-c3cccc(Cl)c3Cl)c(N)n2)C[C@H](C)N1 | < 50 µM |
| Nc1nc(NCCOCCNCC(=O)O)nnc1-c1cccc(Cl)c1Cl | > 300 µM |
| Nc1nc(N2CC(OCC(F)(F)F)C2)nnc1-c1cccc(Cl)c1Cl | > 300 µM |
| Nc1nc(N2CCN[C@H](CO)C2)nnc1-c1cc(F)cc(Cl)c1Cl | 72.6 µM |
| Nc1nc(N2CCN(CC(O)CO)[C@H](CO)C2)nnc1-c1cccc(Cl)c1Cl (some centres undefined) | 293 µM and 243 µM |
| COCCOCCOCCN(C)C1CCN(c2nnc(-c3cccc(Cl)c3Cl)c(N)n2)CC1 | < 50 µM |
| Nc1nc(N2CCC(O)(C(F)(F)F)CC2)nnc1-c1cccc(Cl)c1Cl | 73.9 µM and 59.1 µM |
| COCCOCCOCC(C)Nc1nnc(-c2cccc(Cl)c2Cl)c(N)n1 (centres undefined) | < 50 µM |
| COCCOCCOCCOc1ccc(-c2nnc(N)nc2N)c(Cl)c1Cl | > 300 µM |
| Nc1nc(N2CCN[C@@H](CO)C2)nnc1-c1cc(F)cc(Cl)c1Cl | 111 µM |
| Nc1nc(NC2CCNCC2)nnc1-c1cccc(Cl)c1Cl | > 300 µM |
| COCCOCCOCCN1CCN(c2nnc(-c3cccc(Cl)c3Cl)c(N)n2)CC1 | 54.9 µM and < 50 µM |
| Nc1nc(N2CCN(C3CCNCC3)CC2)nnc1-c1cccc(Cl)c1Cl | 272 µM |
| Nc1nc(N2CCN[C@H](CO)C2)nnc1-c1cccc(Cl)c1Cl | 71.8 µM |
| COCCOCCOCC(=O)N1CCN(c2nnc(-c3cc(F)cc(Cl)c3Cl)c(N)n2)CC1 | 146 µM and 220 µM |
| Nc1nc(N2CC(O)(C(F)(F)F)C2)nnc1-c1cccc(Cl)c1Cl | 291 µM and 249 µM |
| Nc1nc(N2CCN(C3CCOCC3)CC2)nnc1-c1cccc(Cl)c1Cl | < 50 µM |
| Nc1nc(N2CC(N)C2)nnc1-c1cccc(Cl)c1Cl | 284 µM |
| Nc1nc(N2CCNCC2)nnc1-c1cc(F)cc(Cl)c1Cl | 84.5 µM |
